The target in assay [1] is T1, μ-opioid receptor (Homo sapiens (Human), UniProt P35372). Nature of the assay: μ-opioid receptor radioligand dose-displacement binding assay ([3H]-diprenorphine). To be noted: binding affinity. As to the method:
μ-Opioid Receptor Binding Assay Procedures: Radioligand dose-displacement binding assays for μ-opioid receptors used 0.3 nM [^3H]-diprenorphine (Perkin Elmer, Shelton, Conn.), with […] membrane protein/well in a final volume of 500 μl binding buffer (10 mM MgCl2, 1 mM EDTA, 5% DMSO, 50 mM HEPES, pH 7.4). Reactions were carried out in the absence or presence of increasing concentrations of unlabeled naloxone. All reactions were conducted in 96-deep well polypropylene plates for 2 hours at room temperature. Binding reactions were terminated by rapid filtration onto 96-well Unifilter GF/C filter plates (Perkin Elmer, Shelton, Conn.), presoaked in 0.5% polyethylenimine using a 96-well tissue harvester (Perkin Elmer, Shelton, Conn.) followed by performing three filtration washes with 500 μl of ice-cold binding buffer. Filter plates were subsequently dried at 50° C. for 2-3 hours. BetaScint scintillation cocktail (Perkin Elmer, Shelton, Conn.) was added (50 μl/well), and plates were counted using a Packard Top-Count for 1 min/well. The data were analyzed using the one-site competition curve fitting functions in GraphPad PRISM™ v. 3.0 or higher (San Diego, Calif.), or an in-house function for one-site competition curve-fitting.

For assay [2], the target named is T2, κ-opioid receptor (Homo sapiens (Human), UniProt P41145). Nature of the assay: κ-opioid receptor radioligand dose-displacement binding assay ([3H]-U69,593). The following applies: binding affinity, [3H]-U69,593 displacement. As to the method: κ-Opioid Receptor Binding Assay Procedures: Membranes from HEK-293 cells, CHO or U-2 OS cells expressing the recombinant human kappa opioid receptor (κ) were prepared by lysing cells in ice cold hypotonic buffer (2.5 mM MgCl2, 50 mM HEPES, pH 7.4) (10 mL/10 cm dish) followed by homogenization with a tissue grinder/Teflon pestle. Membranes were collected by centrifugation at 30,000×g for 15 min at 4° C. and pellets were resuspended in hypotonic buffer to a final concentration of 1-3 mg/mL. Protein concentrations were determined using the BioRad protein assay reagent with bovine serum albumen as standard, Aliquots of κ receptor membranes were stored at […].
Radioligand dose displacement assays used 0.4 nM [^3H]-U69,593 (GE Healthcare, Piscataway, N.J.; 40 Ci/mmole) with 15 μg membrane protein (recombinant κ opioid receptor expressed in HEK 293 cells; in-house prep) in a final volume of 200 μl binding buffer (5% DMSO, 50 mM Trizma base, pH 7.4). Non-specific binding was determined in the presence of 10 μM unlabeled naloxone or U69,593. All reactions were performed in 96-well polypropylene plates for 1 hour at a temperature of about 25° C. Binding reactions were terminated by rapid filtration onto 96-well Unifilter GF/C filter plates (Perkin Elmer, Shelton, Conn.) presoaked in 0.5% polyethylenimine (Sigma). Harvesting was performed using a 96-well tissue harvester (Perkin Elmer, Shelton, Conn.) followed by five filtration washes with 200 μl ice-cold binding buffer. Filter plates were subsequently dried at 50° C. for 1-2 hours. Fifty μl/well scintillation cocktail (Perkin Elmer, Shelton, Conn.) was added and plates were counted in a Packard Top-Count for 1 min/well.

Assay [3] addresses T1, μ-opioid receptor. The assay is described as follows: μ-opioid receptor [35S]GTPγS functional assay, HEK-293 or CHO cells. It is filed as biochemical. The following applies: for Emax: relative to DAMGO, HEK-293 or CHO cells.
For assay [4], the target named is T2, κ-opioid receptor. The assay is described as follows: κ-opioid receptor [35S]GTPγS functional assay, HEK-293 or CHO cells. In kind it is biochemical. To be noted: for Emax: relative to U69,593, HEK-293 or CHO cells. How it is done:
(§1) κ-Opioid Receptor Functional Assay Procedures: Functional [^35S]GTPγS binding assays were conducted as follows. κ opioid receptor membrane solution was prepared by sequentially adding final concentrations of 0.026 μg/μl κ membrane protein (in-house), 10 μg/mL saponin, 3 μM GDP and 0.20 nM [^35S]GTPγS to binding buffer (100 mM NaCl, 10 mM MgCl2, 20 mM HEPES, pH 7.4) on ice. The prepared membrane solution (190 μl/well) was transferred to 96-shallow well polypropylene plates containing 10 μl of 20× concentrated stock solutions of agonist prepared in DMSO. Plates were incubated for 30 min at a temperature of about 25° C. with shaking. Reactions were terminated by rapid filtration onto 96-well Unifilter GF/B filter plates (Perkin Elmer, Shelton, Conn.) using a 96-well tissue harvester (Packard) and followed by three filtration washes with 200 μl ice-cold binding buffer (10 mM NaH2PO4, 10 mM Na2HPO4, pH 7.4). Filter plates were subsequently dried at 50° C. for 2-3 hours. Fifty μl/well scintillation cocktail (Perkin Elmer, Shelton, Conn.) was added and plates were counted in a Packard Top-Count for 1 min/well.
(§2) κ-Opioid Receptor Functional Data: κ GTP EC50 is the concentration of a compound providing 50% of the maximal response for the compound at a κ receptor.
(§3) κ GTP Emax (%) is the maximal effect elicited by a compound relative to the effect elicited by U69,593.
In TABLE 2, activity response of certain Compounds of the Invention to the μ-, δ- and κ-opioid receptors was determined as described above for functional assays using HEK-293 or CHO cells.
In general terms: Binding of GTPγS marks nucleotide exchange on a G protein.

In assay [5] the target is T1, μ-opioid receptor. Nature of the assay: μ-opioid receptor [35S]GTPγS functional assay, U-2 OS cells. In kind it is biochemical. As to the method: μ-Opioid Receptor Functional Assay Procedures: [^35S]GTPγS functional assays were conducted using freshly thawed μ-receptor membranes prepared in-house from a cell line expressing recombinant μ opioid receptor in a HEK-293, CHO or U-2 OS cell background, or purchased from a commercial source (Perkin Elmer, Shelton, Conn.; or DiscovRx, Fremont, Calif.). Assay reactions were prepared by sequentially adding the following reagents to binding buffer (100 mM NaCl, 10 mM MgCl2, 20 mM HEPES, pH 7.4) on ice (final concentrations indicated): membrane protein (0.026 mg/mL), saponin ([…]), GDP ([…]) and [^35S]GTPγS (0.20 nM; Perkin Elmer, Shelton, Conn.). The prepared membrane solution (190 μl/well) was transferred to 96-shallow well polypropylene plates containing 10 μl of 20× concentrated stock solutions of the agonist [D-Ala^2, N-methyl-Phe^4 Gly-ol^5]-enkephalin (DAMGO) prepared in dimethyl sulfoxide (DMSO). Plates were incubated for 30 min at about 25° C. with shaking. Reactions were terminated by rapid filtration onto 96-well Unifilter GF/B filter plates (Perkin Elmer, Shelton, Conn.) using a 96-well tissue harvester (Perkin Elmer, Shelton, Conn.) followed by three filtration washes with 200 μl of ice-cold wash buffer (10 mM NaH2PO4, 10 mM Na2HPO4, pH 7.4). Filter plates were subsequently dried at 50° C. for 2-3 hours. BetaScint scintillation cocktail (Perkin Elmer, Shelton, Conn.) was added (50 μl/well) and plates were counted using a Packard Top-Count for 1 min/well. Data were analyzed using the sigmoidal dose-response curve fitting functions in GraphPad PRISM v. 3.0, or an in-house function for non-linear, sigmoidal dose-response curve-fitting.
μ-Opioid Receptor Functional Data: μ GTP EC50 is the concentration of a compound providing 50% of the maximal response for the compound at a μ-opioid receptor.
μ GTP Emax (%) is the maximal effect elicited by a compound relative to the effect elicited by DAMGO, a standard μ agonist. Generally, the μ GTP Emax (%) value measures the efficacy of a compound to treat or prevent pain or other Conditions.
(§4) The following TABLE 3 provides results on the activity response of certain Compounds of the Invention at the μ- and κ-opioid receptors determined as described above using U-2 OS cells.

In assay [6] the target is T2, κ-opioid receptor. The assay is described as follows: κ-opioid receptor [35S]GTPγS functional assay, U-2 OS cells. It is filed as biochemical. How it is done:
as §1, §2, §3, §4

Where [7] appears, read: [3H]-diprenorphine displacement, read-out: Ki (nM) Opioid Receptor μ.

Read-outs that look alike come from different tables or passages of the source. Bounds are passed on as bounds.

Broadly, the Ki is the equilibrium dissociation constant of an inhibitor or competing ligand from its target. What is called EC50 is the concentration giving half of the maximal effect. High values mean a less potent agent, low ones a more potent agent. As a reminder, the Emax is the greatest response seen or fitted, relative to the assay's reference.

`COC(=O)c1cc2c([nH]c1=O)C[C@]13CCN(C)[C@H](Cc4ccc(OC)cc41)[C@]3(O)C2` [Compound 27, (6R,6aS,12aR)-methyl 15-(methyl)-6a-hydroxy-2-methoxy-10-oxo-6,6a,7,10,11,12-hexahydro-5H-6,12a-(epiminoethano)naphtho[2,1-g]quinoline-9-carboxylate]: the Ki was above 20 µM at μ-opioid receptor [1] (bound given in μM, read-out: Ki Opioid Receptor μ) and 3080 ± 128 nM at κ-opioid receptor [2].

`COc1ccc2c(c1)[C@]13CCN(C)[C@H](C2)[C@]1(O)Cc1cc(C(N)=O)c(=O)[nH]c1C3` [Compound 28, (6R,6aS,12aR)-15-(methyl)-6a-hydroxy-2-methoxy-10-oxo-6,6a,7,10,11,12-hexahydro-5H-6,12a-(epiminoethano)naphtho[2,1-g]quinoline-9-carboxamide]: the Ki on μ-opioid receptor [1] (setting [7]) turned out to be 14.4 ± 4.14 µM; at κ-opioid receptor [2] it was 12300 nM.

Take `CN1CC[C@]23Cc4[nH]c(=O)c(C(N)=O)cc4C[C@@]2(O)[C@H]1Cc1ccc(O)cc13` [Compound 29, (6R,6aS,12aR)-15-(methyl)-2,6a-dihydroxy-10-oxo-6,6a,7,10,11,12-hexahydro-5H-6,12a-(epiminoethano)naphtho[2,1-g]quinoline-9-carboxamide]: the Ki at μ-opioid receptor [1] (setting [7]) was 0.651 ± 0.101 µM; at κ-opioid receptor [2] it was 25.3 ± 4.86 nM.

Take `NC(=O)c1cc2c([nH]c1=O)C[C@]13CCN(CC4CC4)[C@H](Cc4ccc(O)cc41)[C@@H]3C2` [Compound 7, (6R,6aR,12aS)-15-(cyclopropylmethyl)-2-hydroxy-10-oxo-6,6a,7,10,11,12-hexahydro-5H-6,12a-(epiminoethano)naphtho[2,1-g]quinoline-9-carboxamide]: the Ki at μ-opioid receptor [1] (setting [7]) worked out at 0.00455 ± 0.00126 µM; on κ-opioid receptor [2], 0.19 ± 0.04 nM. The values for the EC50 on μ-opioid receptor [3] and at κ-opioid receptor [4] were above 20000 nM and 33.9 ± 3.73 nM, respectively. This compound displayed an Emax on κ-opioid receptor [4] of 31.3 ± 3.18%.

Consider `NC(=O)[C@@H]1CCCN1C(=O)c1cc2c([nH]c1=O)C[C@]13CCN(CC4CC4)[C@H](Cc4ccc(O)cc41)[C@@H]3C2` [Compound 25, (S)-1-((6R,6aR,12aS)-15-(cyclopropylmethyl)-2-hydroxy-10-oxo-6,6a,7,10,11,12-hexahydro-5H-6,12a-(epiminoethano)naphtho[2,1-g]quinoline-9-carbonyl)pyrrolidine-2-carboxamide], for which the inhibitory constant (Ki) amounted to 0.00041 ± 5e-05 µM on μ-opioid receptor [1] (setting [7]) and 0.32 ± 0.06 nM at κ-opioid receptor [2]. In addition, the EC50 at μ-opioid receptor [3] was determined as 4.87 ± 0.52 nM; at κ-opioid receptor [4] it was 4.42 ± 0.85 nM. Moreover, the Emax on μ-opioid receptor [3] turned out to be 29.3 ± 1.45%; on κ-opioid receptor [4], 44.7 ± 2.73%.

Consider `COc1ccc2c(c1)[C@]13CCN(Cc4ccccc4)[C@H](C2)[C@]1(O)Cc1cc(C(N)=O)c(=O)[nH]c1C3` [Compound 31, (6R,6aS,12aR)-15-benzyl-6a-hydroxy-2-methoxy-10-oxo-6,6a,7,10,11,12-hexahydro-5H-6,12a-(epiminoethano)naphtho[2,1-g]quinoline-9-carboxamide], for which the results for the Ki at μ-opioid receptor [1] (setting [7]) and at κ-opioid receptor [2] were 5.59 ± 0.696 µM and 1580 ± 308 nM, respectively. This compound also registered an EC50 at μ-opioid receptor [5] above 20000 nM. The compound further registered a maximal response (Emax) on μ-opioid receptor [5] (relative to DAMGO, U-2 OS cells) of 10.7 ± 5.21%.

With `NC(=O)[C@H](Cc1ccccc1)NC(=O)c1cc2c([nH]c1=O)C[C@]13CCN(CC4CC4)[C@H](Cc4ccc(O)cc41)[C@@H]3C2` [Compound 23, (6R,6aR,12aS)—N—((S)-1-amino-1-oxo-3-phenylpropan-2-yl)-15-(cyclopropylmethyl)-2-hydroxy-10-oxo-6,6a,7,10,11,12-hexahydro-5H-6,12a-(epiminoethano)naphtho[2,1-g]quinoline-9-carboxamide], the values for the Ki on μ-opioid receptor [1] (setting [7]) and at κ-opioid receptor [2] were 0.00186 ± 0.00065 µM and 0.31 ± 0.05 nM, respectively. Also, the figures for the EC50 at μ-opioid receptor [3] and at κ-opioid receptor [4] were 3.19 ± 0.46 nM and 8.35 ± 2.25 nM, respectively. In addition, the Emax at μ-opioid receptor [3] stood at 41.3 ± 5.04%; at κ-opioid receptor [4], 25.7 ± 4.18%.

As to `NC(=O)C[C@H](NC(=O)c1cc2c([nH]c1=O)C[C@]13CCN(CC4CC4)[C@H](Cc4ccc(O)cc41)[C@@H]3C2)C(N)=O` [Compound 26], the Ki at μ-opioid receptor [1] (setting [7]) was 0.00071 ± 0.00011 µM; on κ-opioid receptor [2], 0.86 ± 0.23 nM. Besides, the EC50 on μ-opioid receptor [3] was determined as 7.54 ± 1.97 nM; at κ-opioid receptor [4], 8.87 ± 1.35 nM. Also, the Emax was 38 ± 1.15% at μ-opioid receptor [3] and 39 ± 2.08% on κ-opioid receptor [4].

As to `COC(=O)c1cc2c([nH]c1=O)C[C@]13CCN(Cc4ccccc4)[C@H](Cc4ccc(OC)cc41)[C@]3(O)C2` [Compound 30, (6R,6aS,12aR)-methyl 15-benzyl-6a-hydroxy-2-methoxy-10-oxo-6,6a,7,10,11,12-hexahydro-5H-6,12a-(epiminoethano)naphtho[2,1-g]quinoline-9-carboxylate], the Ki at μ-opioid receptor [1] (setting [7]) came to 3.94 ± 0.86 µM; at κ-opioid receptor [2], 599 ± 90 nM. The same compound showed an EC50 at κ-opioid receptor [6] above 20000 nM. At κ-opioid receptor [6] (relative to U69,593, U-2 OS cells), this compound had an Emax of 1%.

(Values after US8980906B2, “Pyridonemorphinan analogs and biological activity on opioid receptors” (Purdue Pharma L.P., priority 2012, dated 2015).)
